{"source": "patent US8486462B2", "about": "“Glycoside having 4-methylergost-7-en-3-ol skeleton and hyperglycemia improving agent” (Morinaga Milk Industry Co., Ltd., priority 2004, dated 2013)", "key": {"[1]": {"test_system": "db/db mice", "conditions": "for Hemoglobin A1c relative levels (%) 35th day from the administration: db/db mice, negative sample = 100", "procedure": "As type-II diabetes model mice, 6-week old male db/db mice (purchased from Clea Japan, Inc.) were used. These mice were divided into groups, each consisting of 7 animals. The test sample was dissolved in DMSO, and the concentration of 3-O-β-D-glucopyranosyl-4-methylergost-7-en-3-ol was adjusted to 1, 5 and 15 μg/mL with physiological saline. The final DMSO concentration was adjusted to 0.2%. The type-II diabetes model mice were orally administered with 1 mL of the test sample solution once day everyday with a sonde. […] On the 35th day from the start of the administration, hemoglobin A1c levels were measured by using DCA 2000 (Bayer-Sankyo Co., Ltd.)."}, "[2]": {"test_system": "db/db mice", "experiment": "Test Example 1: hyperglycemia improving effect, random and fasting blood glucose levels in type-II diabetes model mice", "assay_type": "in vivo", "conditions": "oral 1 mL of 15 μg/mL once a day, vs negative sample", "method": "The final DMSO concentration was adjusted to 0.2%. The type-II diabetes model mice were orally administered 1 mL of the test sample solution once a day everyday with a sonde. […] Fasting blood glucose levels and random blood glucose levels were measured over time using Antisense II (Bayer-Sankyo Co., Ltd.). The fasting blood glucose levels were measured after 15 hours of fasting."}}, "note": "Like-named read-outs stand apart in the source and are kept apart here.", "data": [{"smiles": "CC1C(O[C@@H]2O[C@H](CO)[C@@H](O)[C@H](O)[C@H]2O)CC[C@@]2(C)C1CC=C1[C@@H]3CC[C@H]([C@H](C)CC[C@H](C)C(C)C)[C@@]3(C)CC[C@@H]12", "note": "(stereo partly drawn) [compound 1, 3-O-β-D-glucopyranosyl-4-methylergost-7-en-3-ol]", "values": [{"measurement": "Hemoglobin A1c relative levels (%) 35th day from the administration", "setting": "[1]; 1 μg oral once a day", "result": "98.6 ± 7.3", "unit": "%"}, {"measurement": "Hemoglobin A1c relative levels (%) 35th day from the administration", "setting": "[1]; 5 μg oral once a day", "result": "89.6 ± 7.9", "unit": "%"}, {"measurement": "Hemoglobin A1c relative levels (%) 35th day from the administration", "setting": "[1]; 15 μg oral once a day", "result": "73.5 ± 8.6", "unit": "%"}, {"measurement": "hemoglobin A1c levels in comparison with negative sample", "setting": "[1]; repetitive administration of 5 or 15 μg, 35th day", "result": "statistically significant decreases"}, {"measurement": "fasting blood glucose levels, changes over time", "setting": "[2]; after 15 hours of fasting", "result": "effect of suppressing the increases in blood glucose levels was clearly observed"}, {"measurement": "random blood glucose levels, changes over time", "setting": "[2]", "result": "effect of suppressing the increases in blood glucose levels was clearly observed"}]}]}
